Measured values: paper PMC10940605, “Design, synthesis and in vitro anticancer activity of some new lomefloxacin derivatives” (Scientific Reports, 2024)
pIC50: −log10 of the molar value.

Legend:
[1] = tested on: 60 human cancer cell lines; test: NCI-60 SRB screen, whole panel; type: cell-based; settings: Homo sapiens, 48 h; One Dose Mean Graph, Conc 1.00E-5 Molar; read-out: Mean Growth Percent
SNB-19 = test: NCI-60 SRB screen; type: cell-based; settings: Homo sapiens; SNB-19, 10^–5 Molar; read-out: Percent growth inhibition
Protocol: (§1) All newly synthesized compounds were selected and screened for anticancer activity against 60 human cancer cell lines representing 9 types of tumors including leukemia, melanoma, lung, colon, CNS, ovarian, renal, prostate, and breast cancers at the National Cancer Institute (NCI), Bethesda, USA. Screening was performed utilizing a single dose (10^−5 M concentration) and cells were incubated for 48 h. The end point was determined using sulforhodamine B (SRB) dye.
(§2) In this study, all the 16 newly synthesized compounds were submitted to the National Cancer Institute (USA) for anticancer evaluation and were selected and evaluated using 60 different human tumor cell lines representing lung, colon, CNS, ovarian, renal, prostate, breast cancers as well as leukemia and melanoma. A single dose (10^–5 Molar) was used for the initial screening for evaluation of anticancer activity. The 60 human cancer cell lines were provided by the national cancer institute biomedical research campus in Frederick, Maryland.
(§3) 60 different human cancer cell lines were utilized to screen the newly synthesized compounds for anticancer activity according to the previously reported standard procedure[24]–[26] as follows: • 96 well microtiter plates were used to inoculate the cells at […] ranging from 4000–5000 cells/well depending on the replication time of individual cell lines. Roswell Park Memorial Institute culture medium (RPMI 1640 medium) containing 2 mM L-glutamine and fetal bovine serum was used to grow the cells at 37 °C, 5% CO2, 95% air and 100% relative humidity for 24 h. • Fixation of cells in two plates of each cell line in situ was done using trichloroacetic acid (TCA). This represented the measurement of cell population at the time of drug addition (Tz). • Dimethyl sulfoxide (DMSO) was used to dissolve the synthesized compounds at 400-fold the desired final maximum concentration and frozen prior to use. This frozen concentrate was melted and diluted to twice the final concentration with complete medium containing 50 µg/mL gentamycin at time of drug addition. • The final compound concentration was obtained by adding 100 µL of the synthesized compounds to the appropriate microtiter wells already containing 100 µL followed by incubation of the plates at 37 °C, 5% CO2, 95% air and 100% relative humidity for 48 h. • Fixation of the cells was achieved by gentle addition of 50 µL of cold 50% (w/v) TCA followed by incubation for 60 min at 4 °C. The supernatant was then discarded and the plates are washed 5 times with tap water and air dried. • Sulphorhodamine B (SRB) solution (100 µL) at 0.4% (w/v) in 1% acetic acid was added to each plate followed by incubation for 10 min at room temperature. The unbound dye was then removed by washing five times with 1% acetic acid and plates were air dried. • Dissolution of the bound stain was done using […] trizma base and the absorbance was read at […] wavelength using an automated plate reader. • The percentage growth inhibition was calculated as follows: Ti-Tz/C-Tz×100forconcentrationswhichTi≥Tz Ti-Tz/Tz×100forconcentrationswhichTi<Tz • Time zero (Tz) • Control growth (C) • Test growth in the presence of drug (Ti)

MDA-MB-435 = test: NCI-60 SRB screen; type: cell-based; settings: Homo sapiens; MDA-MB-435, 10^–5 Molar; read-out: Percent growth inhibition
Protocol: as §1, §2, §3

HS 578T = test: NCI-60 SRB screen; type: cell-based; settings: Homo sapiens, 10^–5 Molar, read-out: Percent growth inhibition
Protocol: as §1, §2, §3

CAKI-1 = test: NCI-60 SRB screen; type: cell-based; settings: Homo sapiens; CAKI-1, 10^–5 Molar; read-out: Percent growth inhibition
Protocol: as §1, §2, §3

SW-620 = test: NCI-60 SRB screen; type: cell-based; settings: Homo sapiens; SW-620, 10^–5 Molar; read-out: Percent growth inhibition
Protocol: as §1, §2, §3

NCI-H522 = test: NCI-60 SRB screen; type: cell-based; settings: Homo sapiens; NCI-H522, 10^–5 Molar; read-out: Percent growth inhibition
Protocol: as §1, §2, §3

UO-31 = test: NCI-60 SRB screen; type: cell-based; settings: Homo sapiens; UO-31, 10^–5 Molar; read-out: Percent growth inhibition
Protocol: as §1, §2, §3

PC-3 = test: NCI-60 SRB screen; type: cell-based; settings: Homo sapiens; PC-3, 10^–5 Molar; read-out: Percent growth inhibition
Protocol: as §1, §2, §3

SK-MEL-2 = test: NCI-60 SRB screen; type: cell-based; settings: Homo sapiens; SK-MEL-2, 10^–5 Molar; read-out: Percent growth inhibition
Protocol: as §1, §2, §3

OVCAR-4 = test: NCI-60 SRB screen; type: cell-based; settings: Homo sapiens; OVCAR-4, 10^–5 Molar; read-out: Percent growth inhibition
Protocol: as §1, §2, §3

BT-549 = test: NCI-60 SRB screen; type: cell-based; settings: Homo sapiens; BT-549, 10^–5 Molar; read-out: Percent growth inhibition
Protocol: as §1, §2, §3

MCF7 = test: NCI-60 SRB screen; type: cell-based; settings: Homo sapiens; MCF7, 10^–5 Molar; read-out: Percent growth inhibition
Protocol: as §1, §2, §3

SNB-75 = test: NCI-60 SRB screen; type: cell-based; settings: Homo sapiens; SNB-75, 10^–5 Molar; read-out: Percent growth inhibition
Protocol: as §1, §2, §3

MDA-MB-231/ATCC = test: NCI-60 SRB screen; type: cell-based; settings: Homo sapiens, 10^–5 Molar, read-out: Percent growth inhibition
Protocol: as §1, §2, §3

NCI/ADR-RES = test: NCI-60 SRB screen; type: cell-based; settings: Homo sapiens, 10^–5 Molar, read-out: Percent growth inhibition
Protocol: as §1, §2, §3

LOX IMVI = test: NCI-60 SRB screen; type: cell-based; settings: Homo sapiens, 10^–5 Molar, read-out: Percent growth inhibition
Protocol: as §1, §2, §3

SF-539 = test: NCI-60 SRB screen; type: cell-based; settings: Homo sapiens; SF-539, 10^–5 Molar; read-out: Percent growth inhibition
Protocol: as §1, §2, §3

UACC-62 = test: NCI-60 SRB screen; type: cell-based; settings: Homo sapiens; UACC-62, 10^–5 Molar; read-out: Percent growth inhibition
Protocol: as §1, §2, §3

Topoisomerase II = target: Topoisomerase II; parameters: method as in PMID 10051540, PMID 8824299, PMID 9651360; settings: Topoisomerase II catalytic inhibitor, Fig. 1; cited from earlier work
leukemia SR cells [2] = test: Cell cycle analysis, PI flow cytometry; type: cell-based, human; parameters: increase of cells at pre-G1 phase vs control: concentration or dose not given beside the values
Protocol: The cells were washed twice using Ice-cold phosphate buffer saline (PBS). • Centrifugation was used to collect the cells, then the cells were fixed in 70% (v/v) ethanol, washed with PBS and re-suspended with 0.10 mg/mL RNase. • After that, cells were stained with […] propidium iodide (PI) and evaluated by flow cytometry using FACSCalibur (Becton Dickinson).

topoisomerase IIα = target: T1, topoisomerase IIα (Homo sapiens, UniProt P11388); test: Topoisomerase ELISA kit inhibitory assay; type: biochemical; settings: four concentrations
T1 construct: purchased MBS2885049
T1 sequence (P11388 whole entry): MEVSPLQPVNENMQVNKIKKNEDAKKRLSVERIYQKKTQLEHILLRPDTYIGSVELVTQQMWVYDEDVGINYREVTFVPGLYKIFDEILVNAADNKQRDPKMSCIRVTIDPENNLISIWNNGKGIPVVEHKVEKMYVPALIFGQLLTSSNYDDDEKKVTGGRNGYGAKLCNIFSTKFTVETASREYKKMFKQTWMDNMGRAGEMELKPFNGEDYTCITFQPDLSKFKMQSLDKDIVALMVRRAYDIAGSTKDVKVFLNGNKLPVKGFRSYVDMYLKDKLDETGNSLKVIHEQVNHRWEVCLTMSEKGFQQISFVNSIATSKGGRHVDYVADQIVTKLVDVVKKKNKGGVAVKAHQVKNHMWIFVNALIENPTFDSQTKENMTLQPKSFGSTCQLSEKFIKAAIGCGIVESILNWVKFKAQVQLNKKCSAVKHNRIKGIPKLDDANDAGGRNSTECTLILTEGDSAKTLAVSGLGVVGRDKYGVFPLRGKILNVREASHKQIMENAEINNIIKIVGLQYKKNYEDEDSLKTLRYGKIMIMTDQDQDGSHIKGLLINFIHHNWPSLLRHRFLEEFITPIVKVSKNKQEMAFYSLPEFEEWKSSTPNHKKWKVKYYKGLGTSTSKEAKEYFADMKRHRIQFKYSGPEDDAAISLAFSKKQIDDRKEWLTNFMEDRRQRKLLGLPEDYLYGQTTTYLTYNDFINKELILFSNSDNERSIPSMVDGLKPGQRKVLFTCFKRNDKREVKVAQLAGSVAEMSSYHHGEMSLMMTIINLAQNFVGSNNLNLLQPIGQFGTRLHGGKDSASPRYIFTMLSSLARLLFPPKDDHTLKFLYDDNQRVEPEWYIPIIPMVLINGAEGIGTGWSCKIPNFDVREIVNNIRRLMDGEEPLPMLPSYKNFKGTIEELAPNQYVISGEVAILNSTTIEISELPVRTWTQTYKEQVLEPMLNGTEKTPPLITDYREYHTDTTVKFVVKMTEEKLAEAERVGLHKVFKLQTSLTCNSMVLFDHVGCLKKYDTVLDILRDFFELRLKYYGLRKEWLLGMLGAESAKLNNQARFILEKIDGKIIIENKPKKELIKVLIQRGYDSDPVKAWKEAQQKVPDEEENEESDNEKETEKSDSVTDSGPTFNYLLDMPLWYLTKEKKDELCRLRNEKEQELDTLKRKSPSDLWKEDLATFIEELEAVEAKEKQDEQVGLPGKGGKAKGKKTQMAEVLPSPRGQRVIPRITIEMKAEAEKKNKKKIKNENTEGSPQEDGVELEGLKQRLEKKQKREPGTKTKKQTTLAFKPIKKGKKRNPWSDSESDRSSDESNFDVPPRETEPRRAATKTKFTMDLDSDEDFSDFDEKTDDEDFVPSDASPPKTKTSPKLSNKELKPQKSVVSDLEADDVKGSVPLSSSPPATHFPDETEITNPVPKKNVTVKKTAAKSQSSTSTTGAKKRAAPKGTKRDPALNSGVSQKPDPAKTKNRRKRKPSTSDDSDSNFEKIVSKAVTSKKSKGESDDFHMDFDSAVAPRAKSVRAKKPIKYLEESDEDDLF
Protocol: Four concentrations were used and IC50 was calculated.
Compound 3a,b,c,e were evaluated for topoisomerase IIα inhibitory activity utilizing the human DNA topoisomerase ELISA kit (MBS2885049) and following the provided procedure: • Standards and the tested compound were dissolved in sample diluent and tenfold serial dilution was achieved. • Biotin-conjugated antibody and avidin conjugated Horseradish Peroxidase (HRP-avidin) were diluted to tenfolds. • 100 µL of each concentration of standard or test compounds were added to each well and incubated at 37 °C for 1 h. • Removal of the liquid in each well was done. • To each well 100 µL of Biotin-conjugated antibody solution was added followed by incubation for 1 h at 37 °C. • The microtiter plate was allowed to aspirate and washed 3 times. • 100 µL of avidin conjugated Horseradish Peroxidase (HRP-avidin) solution was added to each well and incubatation for 1 h at 37 °C was achieved. • The plate was aspirated and washed 5 times. • Addition of 90 µL of 3,3′,5,5′-tetramethylbenzidine (TMB) substrate to each well followed by plate incubated for 30 min at 37 °C and protection from light was done. • 50 µL stop solution was added.

leukemia SR cells [3] = test: Apoptosis, Annexin-V-FITC/PI; settings: 3e at 1.90 µM, 24 h
[4] = tested on: SMMC7721 cancer cell lines; parameters: method as in PMID 22301863; settings: SMMC7721, Fig. 2; cited from earlier work
HCT-8 cancer cell lines = tested on: HCT-8 cancer cell lines; parameters: method as in PMID 22301863; settings: HCT-8, Fig. 2; cited from earlier work
MCF-7 cancer cell lines = tested on: MCF-7 cancer cell lines; parameters: method as in PMID 22301863; settings: MCF-7, Fig. 2; cited from earlier work

**Q.** With `CCn1cc(C(=O)O)c(=O)c2cc(F)c(N3CCN(CC(=O)Nc4ccc(S(N)(=O)=O)cc4)C(C)C3)c(F)c21` (stereo not shown) [Compound 5d, 1-Ethyl-6,8-difluoro-7-(3-methyl-4-(2-oxo-2-((4-sulfamoylphenyl)amino)ethyl)piperazin-1-yl)-4-oxo-1,4-dihydroquinoline-3-carboxylic acid] as the compound, how does the activity at 10 µM [1] read?
**A.** Its activity at 10 µM is 103%.

**Q.** What about the inhibition at 10 µM (SNB-19) of the same compound?
**A.** The inhibition at 10 µM was 3.07%.

**Q.** And the inhibition at 10 µM (MDA-MB-435)?
**A.** The inhibition at 10 µM was 1.15%.

**Q.** What about the inhibition at 10 µM (HS 578T) of the same compound?
**A.** The inhibition at 10 µM was 0.41%.

**Q.** What about the inhibition at 10 µM (CAKI-1) of the same compound?
**A.** The inhibition at 10 µM was 3.88%.

**Q.** And the inhibition at 10 µM (SW-620)?
**A.** Its inhibition at 10 µM is 0.37%.

**Q.** And the inhibition at 10 µM (NCI-H522)?
**A.** The inhibition at 10 µM was 6.33%.

**Q.** What about the inhibition at 10 µM (UO-31) of the same compound?
**A.** The inhibition at 10 µM was 12.9%.

**Q.** And the inhibition at 10 µM (PC-3)?
**A.** The inhibition at 10 µM was 1.64%.

**Q.** What about the inhibition at 10 µM (SK-MEL-2) of the same compound?
**A.** The inhibition at 10 µM was 2.33%.

**Q.** And the inhibition at 10 µM (OVCAR-4)?
**A.** Its inhibition at 10 µM is 3.58%.

**Q.** What about the inhibition at 10 µM (BT-549) of the same compound?
**A.** The inhibition at 10 µM was 0.7%.

**Q.** What about the inhibition at 10 µM (MCF7) of the same compound?
**A.** The inhibition at 10 µM was 5.22%.

**Q.** And the inhibition at 10 µM (SNB-75)?
**A.** The inhibition at 10 µM was 11.9%.

**Q.** And the inhibition at 10 µM (MDA-MB-231/ATCC)?
**A.** The inhibition at 10 µM was 0.31%.

**Q.** What about the inhibition at 10 µM (NCI/ADR-RES) of the same compound?
**A.** The inhibition at 10 µM was 0.27%.

**Q.** What about the inhibition at 10 µM (LOX IMVI) of the same compound?
**A.** The inhibition at 10 µM was 4.12%.

**Q.** What about the inhibition at 10 µM (SF-539) of the same compound?
**A.** The inhibition at 10 µM was 0.93%.

**Q.** And the inhibition at 10 µM (UACC-62)?
**A.** The inhibition at 10 µM was 9.32%.

**Q.** And the melting point?
**A.** Its melting point is 228 to 230 °C.

**Q.** With `O=C1NC(=S)NC(=O)C1C(=O)Nc1ccccc1` [Merbarone] as the compound, how does the pIC50 (Topoisomerase II) read?
**A.** The pIC50 was 4.70.

**Q.** What does the source list for `COc1cccc2c1C(=O)c1c(O)c3c(c(O)c1C2=O)C[C@@](O)(C(=O)CO)C[C@@H]3O[C@H]1C[C@H](N)[C@H](O)[C@H](C)O1` [Doxorubicin, reference compound]?
**A.** increase of cells at pre-G1 phase vs control (leukemia SR cells [2]): 8.62 folds; %G0-G1 (leukemia SR cells [2]; 3e at 1.90 µM, 24 h): 25.18%; %G2-M (leukemia SR cells [2]; 3e at 1.90 µM, 24 h): 46.06%; %Pre-G1 (leukemia SR cells [2]; 3e at 1.90 µM, 24 h): 22.17%; %S (leukemia SR cells [2]; 3e at 1.90 µM, 24 h): 28.76%; pIC50 (topoisomerase IIα): 6.21; Apoptosis %Early (leukemia SR cells [3]): 5.88%; Apoptosis %Late (leukemia SR cells [3]): 12.21%; Apoptosis %Total (leukemia SR cells [3]): 22.17%; Necrosis (leukemia SR cells [3]): 4.08%

**Q.** With `O=C(N/N=C/c1ccc2c(c1)OCO2)c1cn(C2CC2)c2cc(N3CCNCC3)c(F)cc2c1=O` [QNT4] as the compound, how does the pIC50 [4] read?
**A.** Its pIC50 is 5.53.

**Q.** What about the pIC50 (HCT-8 cancer cell lines) of the same compound?
**A.** Its pIC50 is 5.43.

**Q.** What about the pIC50 (MCF-7 cancer cell lines) of the same compound?
**A.** Its pIC50 is 5.43.
